Data taken from ChEMBL document CHEMBL1777766, “Design, synthesis and in vitro antibacterial activity of 7-(4-alkoxyimino-3-aminomethylpiperidin-1-yl)fluoroquinolone derivatives” (Bioorg Med Chem Lett, 2011).
In brackets after ≈: the same amount, converted by molar mass.

Columns and labels:
[1] = system: Staphylococcus aureus; test: Antibacterial activity against methicillin-sensitive Staphylococcus aureus 08-49; type: functional
[2] = system: Staphylococcus aureus; test: Antibacterial activity against Staphylococcus aureus ATCC 13709; type: functional
[3] = system: Staphylococcus aureus; test: Antibacterial activity against methicillin-resistant Staphylococcus aureus 08-52; type: functional
[4] = system: Staphylococcus epidermidis; test: Antibacterial activity against Staphylococcus epidermidis ATCC 12228; type: functional
[5] = system: Staphylococcus epidermidis; test: Antibacterial activity against methicillin-sensitive Staphylococcus epidermidis 08-17; type: functional
[6] = system: Staphylococcus epidermidis; test: Antibacterial activity against methicillin-resistant Staphylococcus epidermidis 08-18; type: functional
[7] = system: Streptococcus pneumoniae; test: Antibacterial activity against Streptococcus pneumoniae ATCC 6301; type: functional
[8] = system: Streptococcus pneumoniae; test: Antibacterial activity against penicillin-resistant Streptococcus pneumoniae 08-2; type: functional
[9] = system: Enterococcus faecalis; test: Antibacterial activity against Enterococcus faecalis ATCC 51299; type: functional
[10] = system: Enterococcus faecalis; test: Antibacterial activity against vancomycin-resistant Enterococcus faecalis EFL1004; type: functional
[11] = system: Streptococcus pyogenes; test: Antibacterial activity against Streptococcus pyogenes 556; type: functional
[12] = system: Escherichia coli; test: Antibacterial activity against Escherichia coli ATCC 25922; type: functional
[13] = system: Escherichia coli; test: Antibacterial activity against Extended spectrum beta-lactamase producing Escherichia coli 08-5; type: functional
[14] = system: Klebsiella pneumoniae; test: Antibacterial activity against Klebsiella pneumoniae ATCC 700603; type: functional
[15] = system: Pseudomonas aeruginosa; test: Antibacterial activity against Pseudomonas aeruginosa 17; type: functional
[16] = system: Shigella sonnei; test: Antibacterial activity against Shigella sonnei 51592; type: functional
[17] = system: Salmonella typhi; test: Antibacterial activity against Bacillus typhi 50035; type: functional, Salmonella enterica subsp. enterica serovar Typhi; settings: Salmonella enterica
[18] = system: Enterobacter cloacae; test: Antibacterial activity against Enterobacter cloacae 45301; type: functional
[19] = system: Acinetobacter calcoaceticus; test: Antibacterial activity against Acinetobacter calcoaceticus 25001; type: functional
[20] = system: Klebsiella aerogenes; test: Antibacterial activity against Enterobacter aerogenes 45102; type: functional
[21] = system: Serratia marcescens; test: Antibacterial activity against Serratia marcescens 41002; type: functional
[22] = system: Morganella morganii; test: Antibacterial activity against Morganella morganii 49086; type: functional
[23] = system: Providencia rettgeri; test: Antibacterial activity against Proteus rettgeri 49006; type: functional
[24] = system: Proteus vulgaris; test: Antibacterial activity against Proteus vulgaris 56; type: functional
[25] = system: Pseudomonas aeruginosa; test: Ratio of MIC for compound to MIC for GMFX against Pseudomonas aeruginosa 17; type: functional
[26] = system: Pseudomonas aeruginosa; test: Ratio of MIC for compound to MIC for LVFX against Pseudomonas aeruginosa 17; type: functional
[27] = system: Pseudomonas aeruginosa; test: Ratio of MIC for compound to MIC for CPFX against Pseudomonas aeruginosa 17; type: functional
[28] = Cytotoxicity against african green monkey Vero cells after 24 hrs; type: cell-based; settings: chlorocebus sabaeus

CO/N=C1\CCN(c2nc3c(cc2F)c(=O)c(C(=O)O)cn3-c2ccc(F)cc2F)CC1CN (racemic)
MIC [1]: 0.25 µg/mL (≈ 0.526 µM) | MIC [2]: 0.5 µg/mL (≈ 1.05 µM) | MIC [3]: 2 µg/mL (≈ 4.21 µM) | MIC [4]: 0.5 µg/mL (≈ 1.05 µM) | MIC [5]: 2 µg/mL (≈ 4.21 µM) | MIC [6]: 0.5 µg/mL (≈ 1.05 µM) | MIC [7]: 1 µg/mL (≈ 2.1 µM) | MIC [8]: 0.5 µg/mL (≈ 1.05 µM) | MIC [9]: 2 µg/mL (≈ 4.21 µM) | MIC [10]: 4 µg/mL (≈ 8.41 µM) | MIC [11]: 1 µg/mL (≈ 2.1 µM) | MIC [12]: 1 µg/mL (≈ 2.1 µM) | MIC [13]: > 128 µg/mL | MIC [14]: 32 µg/mL (≈ 67.3 µM) | MIC [15]: 4 µg/mL (≈ 8.41 µM) | MIC [16]: 2 µg/mL (≈ 4.21 µM) | MIC [17]: 2 µg/mL (≈ 4.21 µM) | MIC [18]: 2 µg/mL (≈ 4.21 µM) | MIC [19]: 4 µg/mL (≈ 8.41 µM) | MIC [20]: 2 µg/mL (≈ 4.21 µM) | MIC [21]: 8 µg/mL (≈ 16.8 µM) | MIC [22]: 4 µg/mL (≈ 8.41 µM) | MIC [23]: 8 µg/mL (≈ 16.8 µM) | MIC [24]: 8 µg/mL (≈ 16.8 µM) | Ratio [25]: 2 | Ratio [26]: 2 | Ratio [27]: 2 | CC50 at 24 h [28]: 96 µg/mL (≈ 202 µM)

CCO/N=C1\CCN(c2nc3c(cc2F)c(=O)c(C(=O)O)cn3-c2ccc(F)cc2F)CC1CN (racemic)
MIC [1]: 0.25 µg/mL (≈ 0.511 µM) | MIC [2]: 0.25 µg/mL (≈ 0.511 µM) | MIC [3]: 1 µg/mL (≈ 2.04 µM) | MIC [4]: 0.25 µg/mL (≈ 0.511 µM) | MIC [5]: 1 µg/mL (≈ 2.04 µM) | MIC [6]: 0.25 µg/mL (≈ 0.511 µM) | MIC [7]: 2 µg/mL (≈ 4.09 µM) | MIC [8]: 0.5 µg/mL (≈ 1.02 µM) | MIC [9]: 1 µg/mL (≈ 2.04 µM) | MIC [10]: 4 µg/mL (≈ 8.17 µM) | MIC [11]: 4 µg/mL (≈ 8.17 µM) | MIC [12]: 2 µg/mL (≈ 4.09 µM) | MIC [13]: > 128 µg/mL | MIC [14]: 32 µg/mL (≈ 65.4 µM) | MIC [15]: 4 µg/mL (≈ 8.17 µM) | MIC [16]: 2 µg/mL (≈ 4.09 µM) | MIC [17]: 2 µg/mL (≈ 4.09 µM) | MIC [18]: 2 µg/mL (≈ 4.09 µM) | MIC [19]: 4 µg/mL (≈ 8.17 µM) | MIC [20]: 2 µg/mL (≈ 4.09 µM) | MIC [21]: 16 µg/mL (≈ 32.7 µM) | MIC [22]: 4 µg/mL (≈ 8.17 µM) | MIC [23]: 8 µg/mL (≈ 16.3 µM) | MIC [24]: 4 µg/mL (≈ 8.17 µM) | Ratio [25]: 2 | Ratio [26]: 2 | Ratio [27]: 2 | CC50 at 24 h [28]: 72.6 µg/mL (≈ 148 µM)
